Experimental data reported in patent US20250333406A1, “SULFONYL CYCLIC DERIVATIVES, AND COMPOSITIONS AND METHODS THEREOF” (Lysoway Therapeutics, Inc., priority 2023, published 2025).
pEC50: −log10 of the molar value.

System: TFEB
Test: TFEB Nuclear Translocation Assay
Type: cell-based
Details: read-out: EC50 of TFEB activation

pEC50	SMILES
≥ 6.00	CC(C)S(=O)(=O)c1ccc(S(=O)(=O)n2nc(N3CCN(c4ncc(F)cn4)C[C@H]3C3CC3)c3c(Cl)cccc32)cc1 (single isomer, unassigned) [Compound 61]
≥ 6.00	CC(C)S(=O)(=O)c1ccc(S(=O)(=O)n2nc(N3CCN(c4ncc(F)cn4)C[C@H]3C(F)(F)F)c3c(Cl)cccc32)cc1 (single isomer, unassigned) [Compound 69]
≥ 6.00	CC(C)S(=O)(=O)c1ccc(S(=O)(=O)n2nc(N3CCN(C(=O)C(F)(F)F)C[C@H]3C(F)(F)F)c3c(Cl)cccc32)cc1 (single isomer, unassigned) [Compound 71]
≥ 6.00	CC(C)S(=O)(=O)c1ccc(S(=O)(=O)n2nc(N3CCN(c4ncc(F)cn4)C[C@H]3C(F)(F)F)c3c(F)cccc32)cc1 (single isomer, unassigned) [Compound 73]
≥ 6.00	CC(C)S(=O)(=O)c1ccc(S(=O)(=O)n2nc(N3CC=C(Cl)C[C@H]3C(F)(F)F)c3c(Cl)cccc32)cc1 (single isomer, unassigned) [Compound 83]
≥ 6.00	CC(F)(F)c1ccc(S(=O)(=O)n2nc(N3CCN(c4ncc(F)cn4)C[C@@H]3C(F)(F)F)c3c(Cl)cccc32)cc1 (single isomer, unassigned) [Compound 107]
≥ 6.00	CC(C)S(=O)(=O)c1ccc(S(=O)(=O)n2nc(N3CCC[C@H]3C(F)(F)F)c3c(Cl)cccc32)cc1 (single isomer, unassigned) [Compound 110]
≥ 6.00	CC(F)(F)c1ccc(S(=O)(=O)n2nc(N3CCN(c4ncc(F)cn4)C[C@@H]3C(C)(C)F)c3c(Cl)cccc32)cc1 (single isomer, unassigned) [Compound 122]
≥ 6.00	CC(C)(C)S(=O)(=O)c1ccc(S(=O)(=O)n2nc(N3CCN(c4ncc(Cl)cn4)CC34CC4)c3c(Cl)cccc32)s1 [Compound 1, 1-[(5-tert-butylsulfonyl-2-thienyl)sulfonyl]-4-chloro-3-[7-(5-chloropyrimidin-2-yl)-4,7-diazaspiro [2.5]octan-4-yl]indazole]
≥ 6.00	CC(C)S(=O)(=O)c1ccc(S(=O)(=O)n2nc(N3CCN(c4ncc(Cl)cn4)CC34CC4)c3c(Cl)cccc32)cc1 [Compound 2, 4-chloro-3-(7-(5-chloropyrimidin-2-yl)-4,7-diazaspiro [2.5]octan-4-yl)-1-((4-(isopropylsulfonyl)phenyl)sulfonyl)-1H-indazole]
≥ 6.00	CC(C)S(=O)(=O)c1ccc(S(=O)(=O)n2nc(N3CCN(c4ncc(F)cn4)CC34CC4)c3c(Cl)cc(F)cc32)cc1 [Compound 3, 4-chloro-6-fluoro-3-(7-(5-fluoropyrimidin-2-yl)-4,7-diazaspiro [2.5]octan-4-yl)-1-((4-(isopropylsulfonyl)phenyl)sulfonyl)-1H-indazole]
≥ 6.00	CC(C)S(=O)(=O)c1ccc(S(=O)(=O)n2nc(N3CCN(c4ncc(Cl)cn4)CC3C3CC3)c3c(Cl)cccc32)s1 (stereo not shown) [Compound 5, 4-chloro-3-[4-(5-chloropyrimidin-2-yl)-2-cyclopropyl-piperazin-1-yl]-1-[(5-isopropylsulfonyl-2-thienyl)sulfonyl]indazole]
≥ 6.00	CC(C)S(=O)(=O)c1ccc(S(=O)(=O)n2nc(N3CCN(CC(F)(F)F)CC34CC4)c3c(Cl)cccc32)s1 [Compound 6, 4-chloro-1-[(5-isopropylsulfonyl-2-thienyl)sulfonyl]-3-[7-(2,2,2-trifluoroethyl)-4,7-diazaspiro [2.5]octan-4-yl]indazole]
≥ 6.00	CC(C)S(=O)(=O)c1ccc(S(=O)(=O)n2nc(N3CCOCC34CC4)c3c(Cl)cccc32)s1 [Compound 7, 4-[4-chloro-1-[(5-isopropylsulfonyl-2-thienyl)sulfonyl]indazol-3-yl]-7-oxa-4-azaspiro [2.5]octane]
≥ 6.00	CC(C)S(=O)(=O)c1ccc(S(=O)(=O)n2nc(N3CCC(=O)CC34CC4)c3c(Cl)cccc32)s1 [Compound 8, 4-[4-chloro-1-[(5-isopropylsulfonyl-2-thienyl)sulfonyl]indazol-3-yl]-4-azaspiro [2.5]octan-7-one]
≥ 6.00	CC(C)S(=O)(=O)c1ccc(S(=O)(=O)n2nc(N3CCN(C(=O)C(F)(F)F)CC34CC4)c3c(Cl)cccc32)s1 [Compound 9, 1-[4-[4-chloro-1-[(5-isopropylsulfonyl-2-thienyl)sulfonyl]indazol-3-yl]-4,7-diazaspiro [2.5]octan-7-yl]-2,2,2-trifluoro-ethanone]
≥ 6.00	CC(C)S(=O)(=O)c1ccc(S(=O)(=O)n2nc(N3CCN(c4ncc(F)cn4)CC34CC4)c3c(Cl)cccc32)cc1 [Compound 10, 4-chloro-3-[7-(5-fluoropyrimidin-2-yl)-4,7-diazaspiro [2.5]octan-4-yl]-1-(4-isopropylsulfonylphenyl) sulfonyl-indazole]
≥ 6.00	CC(C)S(=O)(=O)c1ccc(S(=O)(=O)n2nc(N3CCC(F)CC34CC4)c3c(Cl)cccc32)s1 (stereo not shown) [Compound 11, 4-chloro-3-(7-fluoro-4-azaspiro [2.5]octan-4-yl)-1-[(5-isopropylsulfonyl-2-thienyl)sulfonyl]indazole]
≥ 6.00	CC(C)S(=O)(=O)c1ccc(S(=O)(=O)n2nc(N3CCC(F)(F)CC34CC4)c3c(Cl)cccc32)s1 [Compound 12, 4-chloro-3-(7,7-difluoro-4-azaspiro [2.5]octan-4-yl)-1-[(5-isopropylsulfonyl-2-thienyl)sulfonyl]indazole]
≥ 6.00	CC(C)S(=O)(=O)c1ccc(S(=O)(=O)n2nc(N3CCN(S(=O)(=O)C(F)(F)F)CC34CC4)c3c(Cl)cccc32)s1 [Compound 14, 4-chloro-1-[(5-isopropylsulfonyl-2-thienyl)sulfonyl]-3-[7-(trifluoromethylsulfonyl)-4,7-diazaspiro [2.5]octan-4-yl]indazole]
≥ 6.00	CC(C)S(=O)(=O)c1ccc(S(=O)(=O)n2nc(N3CCN(c4ncc(Cl)cn4)CC34CC4)c3c(F)cccc32)cc1 [Compound 15, 3-(7-(5-chloropyrimidin-2-yl)-4,7-diazaspiro [2.5]octan-4-yl)-4-fluoro-1-((4-(isopropylsulfonyl)phenyl)sulfonyl)-1H-indazole]
≥ 6.00	CC(C)S(=O)(=O)c1ccc(S(=O)(=O)n2nc(N3CCN(c4ncc(F)cn4)CC34CC4)c3c(F)cccc32)cc1 [Compound 16, 4-fluoro-3-(7-(5-fluoropyrimidin-2-yl)-4,7-diazaspiro [2.5]octan-4-yl)-1-((4-(isopropylsulfonyl)phenyl)sulfonyl)-1H-indazole]
≥ 6.00	CC(C)S(=O)(=O)c1ccc(S(=O)(=O)n2nc(N3CCCC34CC4)c3c(Cl)cccc32)s1 [Compound 17, 4-chloro-1-((5-(isopropylsulfonyl)thiophen-2-yl)sulfonyl)-3-(4-azaspiro [2.4]heptan-4-yl)-1H-indazole]

SMILES	pEC50
CC(C)S(=O)(=O)c1cccc(S(=O)(=O)n2nc(N3CCN(c4ncc(Cl)cn4)CC34CC4)c3c(Cl)cccc32)c1 [Compound 4, 4-chloro-3-[7-(5-chloropyrimidin-2-yl)-4,7-diazaspiro [2.5]octan-4-yl]-1-(3-isopropylsulfonylphenyl) sulfonyl-indazole]	≥ 6.00
CC(C)S(=O)(=O)c1ccc(S(=O)(=O)n2nc(N3CCC(N(C)C)CC34CC4)c3c(Cl)cccc32)s1 (stereo not shown) [Compound 13, 4-[4-chloro-1-[(5-isopropylsulfonyl-2-thienyl)sulfonyl]indazol-3-yl]-N, N-dimethyl-4-azaspiro [2.5]octan-7-amine]	≥ 6.00
